Blank lines part the entries; values can stand above or below the molecule they belong to.
What was measured:
[1] = biological target: T1, human recombinant GABAAR containing α5β3γ2 subunits (benzodiazepine site) (Homo sapiens, UniProt P18507+P31644); assay: In vitro radioligand binding assay (α5-GABAAR Ki); settings: inhibition of [3H]Ro15-1788 binding, membranes of L(tk−) cells expressing human α5β3γ2; read-out: α5-GABAAR Ki
T1 construct: expressed in transfected cells; host or cells: mouse L(tk−) cells, dexamethasone-inducible vector pMSGneo
T1 sequence (P31644 32-462): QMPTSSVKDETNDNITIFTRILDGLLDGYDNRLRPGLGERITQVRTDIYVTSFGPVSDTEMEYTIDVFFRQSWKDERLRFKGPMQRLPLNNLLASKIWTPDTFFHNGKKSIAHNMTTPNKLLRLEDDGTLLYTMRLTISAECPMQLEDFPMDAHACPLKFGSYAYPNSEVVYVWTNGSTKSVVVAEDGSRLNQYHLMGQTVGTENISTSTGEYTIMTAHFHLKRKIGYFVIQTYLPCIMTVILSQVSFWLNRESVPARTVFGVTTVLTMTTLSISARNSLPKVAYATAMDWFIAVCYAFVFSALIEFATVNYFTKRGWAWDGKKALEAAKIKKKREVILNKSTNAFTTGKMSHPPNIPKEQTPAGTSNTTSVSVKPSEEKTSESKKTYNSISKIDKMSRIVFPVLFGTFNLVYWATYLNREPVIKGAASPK
T1 sequence (P28472 26-473 partner): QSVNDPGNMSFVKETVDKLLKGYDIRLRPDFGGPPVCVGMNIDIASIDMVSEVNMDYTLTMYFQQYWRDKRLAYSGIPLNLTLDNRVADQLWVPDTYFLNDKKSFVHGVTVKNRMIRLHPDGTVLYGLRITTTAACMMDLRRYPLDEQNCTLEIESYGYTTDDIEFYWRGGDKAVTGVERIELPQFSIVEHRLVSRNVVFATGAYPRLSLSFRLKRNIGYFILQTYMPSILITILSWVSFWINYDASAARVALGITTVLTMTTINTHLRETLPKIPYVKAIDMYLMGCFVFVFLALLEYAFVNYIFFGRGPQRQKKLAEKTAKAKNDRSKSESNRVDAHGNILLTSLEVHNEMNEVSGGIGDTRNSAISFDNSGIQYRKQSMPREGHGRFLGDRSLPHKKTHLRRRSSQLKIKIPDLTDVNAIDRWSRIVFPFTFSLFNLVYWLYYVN
T1 sequence (P18507 40-475): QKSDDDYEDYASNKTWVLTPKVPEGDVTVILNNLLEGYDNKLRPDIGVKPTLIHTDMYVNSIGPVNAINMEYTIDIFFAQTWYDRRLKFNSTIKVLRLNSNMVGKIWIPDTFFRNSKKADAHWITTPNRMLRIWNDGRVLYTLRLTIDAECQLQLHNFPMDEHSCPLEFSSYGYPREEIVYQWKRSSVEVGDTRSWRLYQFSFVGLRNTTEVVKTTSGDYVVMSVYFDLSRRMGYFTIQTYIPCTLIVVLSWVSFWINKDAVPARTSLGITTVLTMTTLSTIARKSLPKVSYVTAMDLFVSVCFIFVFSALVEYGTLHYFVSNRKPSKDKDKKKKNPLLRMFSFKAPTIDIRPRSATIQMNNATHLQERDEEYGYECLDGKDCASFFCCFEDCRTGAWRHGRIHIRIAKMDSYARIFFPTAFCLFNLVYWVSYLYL
Source text: (§1) Mouse L(tk^−) cells stably expressing human α1β3γ2, α2β3γ2, α3β3γ2, α5β3γ2 GABAARs generated by transfection of the individual subunits in the dexamethasone-inducible expression vector pMSGneo in mouse L(tk^−) cells (Hadingham et al., 1993, Mol. Pharmacol. 43:970-975 and 1993, Mol. Pharmacol. 44:1211-1218) were used for binding and functional assays. For certain compounds, HEK293 cells stable expressing the human α1β3γ2L, α2β3γ2L, α3β3γ2L and α5β3γ2L GABAA receptors were used to evaluate their functional effects in a SyncroPatch electrophysiology assay.
L(tk^−) cells stably expressing human α1β3γ2, α2β3γ2, α3β3γ2, α5β3γ2 GABAARs were maintained in DMEM F12 medium supplemented with 10% Foetal Bovine Serum, 1% Penicillin/Streptomycin and 1 mg/mL Geneticin G418 in an incubator at 37° C. with a humidified atmosphere with 5% CO2.
The affinity (Ki) of compounds for the benzodiazepine site of human recombinant GABAARs was measured by their ability to inhibit the binding of the selective benzodiazepine antagonist [^3H] Ro15-1788 ([^3H] flumazenil).
L(tk^−) cells expressing human recombinant GABAAR containing α1β3γ2, α2β3γ2, α3β3γ2, α5β3γ2 subunits were harvested and membranes were prepared for each receptor combination in phosphate buffer (K2PO4 10 mM, pH 7.0) (Hadingham et al. (1992) Proc. Natl. Acad. Sci. USA; 89 (14): 6378-82). Protein concentration, receptor expression and the Kd of [^3H] Ro15-1788 were determined before Ki values of compounds were evaluated. For Kd evaluation, saturation binding curves were obtained by incubating membrane with various concentrations of [^3H] Ro15-1788 (82.5 Ci/mM), with nonspecific binding measured in the presence of 1 μM TP003.
For Ki evaluation, cell membranes were incubated with 4 nM [^3H] Ro15-1788 along with a range of concentrations of test compound. Nonspecific binding was determined using 1 μM TP003. All incubations were performed for 1 hour at 4° C. in assay buffer. The total assay volume was 0.5 mL, containing 100 μg membrane protein/well α1β3γ2, α2β3γ2, α3β3γ2 and 50 μg membrane protein/well for α53γ2. Incubations were terminated by filtration and washing with ice cold Tris-HCl buffer (50 mM, pH=7.4) over Whatman GF/B filters and the radioactivity of the filters was measured using liquid scintillation counting.
The % inhibition of [^3H] Ro15-1788 binding was plotted as a function of compound concentration and the IC50 calculated. From the IC50, the affinity (Ki) was calculated using the method of Cheng and Prusoff using the Kd values obtained for [^3H] Ro15-1788.

[2] = biological target: T2, human α5β3γ2 GABAARs in mouse L(tk−) cells (Homo sapiens, UniProt P18507+P31644); assay: In vitro electrophysiological recording assay (α5-GABAAR relative efficacy), QPatch; format: cell-based; settings: for α5-GABAAR Relative Efficacy (to DMCM), Qpatch: GABA EC10-20
T2 construct: expressed in transfected cells; host or cells: mouse L(tk−) cells, dexamethasone-inducible vector pMSGneo
T2 sequence (P31644 32-462): as the sequence (P31644 32-462) above
T2 sequence (P28472 26-473 partner): as the sequence (P28472 26-473 partner) above
T2 sequence (P18507 40-475): as the sequence (P18507 40-475) above
Source text: as §1
For QPatch electrophysiology testing, 1 μM dexamethasone was added to the culture medium of L(tk^−) cells 24 hours before the recordings were performed. Cells were typically used for electrophysiology experiments 72-96 hours after splitting.
The efficacy of modulators was evaluated using either the automated patch-clamp platform QPatch16 (Sophion, Copenhagen, Denmark) or the SyncroPatch 384i (Nanion Technologies, Germany). Cells were harvested from flasks by enzymatic dissociation and re-suspended in serum-free medium.
For QPatch recordings, all experiments were carried out at room temperature (20-22° C.) using a standard whole cell procedure and physiological solutions. Gigaseals were formed upon execution of a combined suction/voltage protocol with subsequent increased suction leading to the whole-cell configuration. The currents recorded were acquired at 1 KHz and filtered at 0.3 KHz using a Bessel filter. Whole-cell currents were measured at a holding potential of −65 mV.
For QPatch recordings, the extracellular solution contained of (in mM): 145 NaCl, 4 KCl, 1 MgCl2, 2CaCl2, 10 HEPES, 10 D-glucose (pH 7.4), and the intracellular solution consisted of (in mM): 96 KCl, 28 CsCl, 25 KOH, 4.3 CaCl2), 1.4 MgCl2, 10 EGTA, HEPES, 3 MgATP (pH 7.2). The osmolarities of the extracellular and intracellular solutions were 305 and 295 mOsm respectively.
The effects of modulators were evaluated in the presence of a submaximal GABA concentration, giving typically 10-20% activation (GABA EC10-20) of the response elicited by a saturating GABA concentration. For QPatch recordings, to check and ensure baseline current stability before compound addition, five consecutive applications of GABA EC10-20 alone (each application with a 2 s duration, separated by minimum 1 min wash off periods) were performed before compound addition. The test compound was applied using the pipetting system of the QPatch system 1 min at least prior to co-application with GABA EC10-20. For SyncroPatch recordings, GABA EC20 alone was applied three times (1 s long applications, with wash steps in-between) before compound addition. This was followed by a 1-2 min pre-incubation with the test compound and then re-application of GABA EC10-20 in the presence of the compound. Finally, following a further wash step, a saturating concentration of GABA was applied, allowing the accurate evaluation for each cell of the percentage baseline activation elicited by the submaximal GABA applied.
The compounds were first dissolved in DMSO as a 10 mM stock and then further diluted to the testing concentrations so that the final DMSO concentration in the extracellular recording solution was kept constant at 0.1% for the QPatch recordings, or 0.2% for the SyncroPatch recordings.
The % efficacy of modulators was determined from the GABA elicited currents recorded in the presence and absence of the test compound, using the formula:
[((compound peak current−leak)−(GABA peak current−leak))/(GABA peak current−leak)]*100,
where ‘leak’ is the leak baseline current at −65 mV, ‘compound peak current’ is the current elicited by co-application of compound and GABA, and ‘GABA peak current’ is the current elicited by GABA alone during the 5th GABA application. The results were presented as ‘relative efficacy’ for each compound generally at a concentration equal or higher than 100 times their determined Ki. […]

SMILES: COc1cc(-c2cnn(C)c2)ccc1NC(=O)c1c(-c2ccccc2)noc1C [Example 12, N-[2-Methoxy-4-(1-methylpyrazol-4-yl)phenyl]-5-methyl-3-phenyl-isoxazole-4-carboxamide]
Ki [1]: 17.1 nM
α5-GABAAR Relative Efficacy (to DMCM), Qpatch ([2]; Conc 3 μM): −0.68

SMILES: CNc1cc(-c2ccc(NC(=O)c3c(-c4ccccc4)noc3C)c(OC)n2)ccn1 [Example 103, N-(6-Methoxy-2′-(methylamino)-[2,4′-bipyridin]-5-yl)-5-methyl-3-phenylisoxazole-4-carboxamide]
Ki [1]: 6.6 nM
α5-GABAAR Relative Efficacy (to DMCM), Qpatch ([2]; Conc 1 μM): −0.78

SMILES: COc1nc(-c2ccc(CO)nc2)ccc1NC(=O)c1c(C)nnn1-c1ccccc1 [Example 160, N-(6′-(Hydroxymethyl)-6-methoxy-[2,3′-bipyridin]-5-yl)-4-methyl-1-phenyl-1H-1,2,3-triazole-5-carboxamide]
Ki [1]: 28 nM
α5-GABAAR Relative Efficacy (to DMCM), Qpatch ([2]; Conc 3 μM): −0.77

SMILES: COc1nc(-c2cnn(C(C)C)c2)ccc1NC(=O)c1c(-c2ccccc2)noc1C [Example 21, N-[6-(1-Isopropylpyrazol-4-yl)-2-methoxy-3-pyridyl]-5-methyl-3-phenyl-isoxazole-4-carboxamide]
Ki [1]: 20.5 nM
α5-GABAAR Relative Efficacy (to DMCM), Qpatch ([2]; Conc 3 μM): −0.48

SMILES: CNCc1ncc(-c2ccc(NC(=O)c3c(-c4ccccc4)noc3C)c(OC)n2)cn1.Cl [Example 168, N-[2-Methoxy-6-[2-(methylaminomethyl)pyrimidin-5-yl]-3-pyridyl]-5-methyl-3-phenyl-isoxazole-4-carboxamide hydrochloride]
Ki [1]: 2.7 nM
α5-GABAAR Relative Efficacy (to DMCM), Qpatch ([2]; Conc 0.3 μM): −0.72

SMILES: COc1nc(-c2ncnn2C)ccc1NC(=O)c1c(-c2ccccc2)noc1C [Example 52, N-[2-Methoxy-6-(2-methyl-1,2,4-triazol-3-yl)-3-pyridyl]-5-methyl-3-phenyl-isoxazole-4-carboxamide]
Ki [1]: 9.8 nM
α5-GABAAR Relative Efficacy (to DMCM), Qpatch ([2]; Conc 1 μM): −0.49

SMILES: COc1nc(-c2cnc(C(N)=O)nc2)ccc1NC(=O)c1c(C)nnn1-c1ccccc1 [Example 165, 5-(6-Methoxy-5-(4-methyl-1-phenyl-1H-1,2,3-triazole-5-carboxamido)pyridin-2-yl)pyrimidine-2-carboxamide]
Ki [1]: 35.4 nM
α5-GABAAR Relative Efficacy (to DMCM), Qpatch ([2]; Conc 3 μM): −0.84

SMILES: CCc1c(C(=O)OC)ncc2[nH]c3cc(OC)c(OC)cc3c12 [DMCM, methyl-6,7-dimethoxy-4-ethyl-beta-carboline-3-carboxylate, reference compound]
attenuation of GABA-induced currents (efficacy) ([2]; n=5, reference for normalising relative efficacy): −57±4%

Now from value to molecule:

Ki [1]: 2.5 nM
α5-GABAAR Relative Efficacy (to DMCM), Qpatch ([2]; Conc 0.3 μM): −0.84
SMILES: COCc1ncc(-c2ccc(NC(=O)c3c(-c4ccccc4)noc3C)c(OC)n2)cn1 [Example 125, N-[2-Methoxy-6-[2-(methoxymethyl)pyrimidin-5-yl]-3-pyridyl]-5-methyl-3-phenyl-isoxazole-4-carboxamide]

Ki [1]: 4.1 nM
α5-GABAAR Relative Efficacy (to DMCM), Qpatch ([2]; Conc 1 μM): −1.11
SMILES: COc1nc(-c2cnc(OCCN(C)C)nc2)ccc1NC(=O)c1c(-c2ccccc2)noc1C [Example 163, N-[6-[2-[2-(Dimethylamino)ethoxy]pyrimidin-5-yl]-2-methoxy-3-pyridyl]-5-methyl-3-phenyl-isoxazole-4-carboxamide]

Ki [1]: 0.3 nM
α5-GABAAR Relative Efficacy (to DMCM), Qpatch ([2]; Conc 0.1 μM): −1.12
SMILES: CNc1ncc(-c2cnc(NC(=O)c3c(-c4ccccc4)noc3C)c(OC)n2)cn1 [Example 145, N-[3-Methoxy-5-[2-(methylamino)pyrimidin-5-yl]pyrazin-2-yl]-5-methyl-3-phenyl-isoxazole-4-carboxamide]

Ki [1]: 2.3 nM
α5-GABAAR Relative Efficacy (to DMCM), Qpatch ([2]; Conc 0.3 μM): −0.91
SMILES: COc1nc(-c2cnc3n2CCOC3)cnc1NC(=O)c1c(-c2ccccc2)noc1C [Example 155, N-[5-(6,8-Dihydro-5H-imidazo[2,1-c][1,4]oxazin-3-yl)-3-methoxy-pyrazin-2-yl]-5-methyl-3-phenyl-isoxazole-4-carboxamide]

Ki [1]: 0.2 nM
α5-GABAAR Relative Efficacy (to DMCM), Qpatch ([2]; Conc 0.1 μM): −0.80
SMILES: COc1nc(-c2cnc(C(=O)NCCN(C)C)nc2)ccc1NC(=O)c1c(-c2ccccc2)noc1C [Example 172, N-[6-[2-[2-(Dimethylamino)ethylcarbamoyl]pyrimidin-5-yl]-2-methoxy-3-pyridyl]-5-methyl-3-phenyl-isoxazole-4-carboxamide]

Ki [1]: 0.8 nM
α5-GABAAR Relative Efficacy (to DMCM), Qpatch ([2]; Conc 0.1 μM): −0.76
SMILES: COc1nc(-c2cnc3n2CCOC3)ccc1NC(=O)c1c(-c2ccccc2)noc1C [Example 79, N-[6-(6,8-Dihydro-5H-imidazo[2,1-c][1,4]oxazin-3-yl)-2-methoxy-3-pyridyl]-5-methyl-3-phenyl-isoxazole-4-carboxamide]

Ki [1]: 4.4 nM
α5-GABAAR Relative Efficacy (to DMCM), Qpatch ([2]; Conc 1 μM): −0.69
SMILES: COc1nc(-n2cncn2)ccc1NC(=O)c1c(-c2ccccc2)noc1C [Example 46, N-[2-Methoxy-6-(1,2,4-triazol-1-yl)-3-pyridyl]-5-methyl-3-phenyl-isoxazole-4-carboxamide]

Ki [1]: 1.1 nM
α5-GABAAR Relative Efficacy (to DMCM), Qpatch ([2]; Conc 0.1 μM): −0.39
SMILES: Cc1onc(-c2ccc(F)cc2)c1C(=O)Nc1ccc(-n2ccnc2)nc1OC(C)C [Example 204, 3-(4-Fluorophenyl)-N-(6-imidazol-1-yl-2-isopropoxy-3-pyridyl)-5-methyl-isoxazole-4-carboxamide]

Ki [1]: 3.1 nM
α5-GABAAR Relative Efficacy (to DMCM), Qpatch ([2]; Conc 1 μM): −0.81
SMILES: COc1nc(-c2ccc(NC(C)=O)nc2)ccc1NC(=O)c1c(-c2ccccc2)noc1C [Example 108, N-(6′-Acetamido-6-methoxy-[2,3′-bipyridin]-5-yl)-5-methyl-3-phenylisoxazole-4-carboxamide]

Ki [1]: 1 nM
α5-GABAAR Relative Efficacy (to DMCM), Qpatch ([2]; Conc 0.3 μM): −0.85
SMILES: COc1nc(-c2cnc3cnccn23)ccc1NC(=O)c1c(-c2ccccc2)noc1C [Example 135, N-(6-(Imidazo[1,2-a]pyrazin-3-yl)-2-methoxypyridin-3-yl)-5-methyl-3-phenylisoxazole-4-carboxamide]
